This note sets out measurements from patent publication US20110034557A1, “ANTIMICROBIAL COMPOSITIONS AND USES THEREOF” (MODULAR GENETICS, INC., priority 2009, published 2011).

Residues, ends and D or L forms follow the SMILES beside them.

In this assay the test system is S. aureus (ATCC 6538). The experiment in a line: Disk assay of growth inhibition of S. aureus on agar plates. The format is cell-based, Staphylococcus aureus. The protocol:
The ability of FA-Glu to inhibit the growth or kill S. aureus (ATCC 6538) was examined.
S. aureus was grown in liquid culture in either Tryptic Soy Broth (TSB; Sigma), which contains casein peptone 17 g/l, soya peptone 3 g/l, sodium chloride 5 g/l, dipotassium hydrogen phosphate 2.5 g/l, and glucose 2.5 g/l or M9YE (disodium hydrogen phosphate 6 g/l, monopotassium phosphate 3 g/l, sodium chloride 0.5 g/l, ammonium chloride 1 g/l, yeast extract 3 g/l, glucose 5 g/l, and casamino acids 10 g/l) at 30° C. Disk assays were carried out on M9YE plates (M9YE liquid media plus 15 g/l agar) and YPD plates (peptone 20 g/l, yeast extract 10 g/l, glucose 20 g/l, agar 15 g/l). S. aureus was plated out evenly using a sterile cotton swab. Blank Paper disks 6 mm were placed into a sterile container and then different dilutions of FA-Glu (25 ug, 100 ug, 300 ug) that had been re-suspended in a diluted aqueous solution containing ammonium hydroxide (pH 10.2) were added to the disks. The disks were allowed to absorb and dry. Using sterile tweezers, the disks were placed onto the plates that had been swabbed with Staphylococcus aureus. They were then incubated at 28° C. over approximately 65 hours.
Disk assays were repeated as above using a commercially available acyl amino acid, cocoyl glutamate (Ajinomoto, Japan).

Consider `CC(C)CCCCCCCCC[C@@H]1CC(=O)N[C@@H](CCC(=O)O)C(=O)N[C@@H](CC(C)C)C(=O)N[C@H](CC(C)C)C(=O)N[C@@H](C(C)C)C(=O)N[C@@H](CC(=O)O)C(=O)N[C@H](CC(C)C)C(=O)N[C@@H](CC(C)C)C(=O)O1` [surfactin, reference compound] (HELM PEPTIDE1{E.L.[dL].V.D.[dL].L}|CHEM1{[CC(C)CCCCCCCCC[C@H](CC(=O)[*:1])O[*:2]]}$PEPTIDE1,CHEM1,1:R1-1:R1|PEPTIDE1,CHEM1,7:R2-1:R2$$$V2.0), for which the “halo formation around disk (control experiment)” value (300 ug absorbed onto a disk) is “produced a halo, but there was cell growth within the halo”.

cocoyl glutamate [reference compound]: the regrowth in halos result (disk assay plates) is “regrowth occurred”. Further, where the note is “disk assays repeated as above”, the “halo formation around disk” value is given as “produced a halo”. Further, for the setting “same concentration and same conditions as FA-Glu”, the “halo size relative to FA-Glu” value is “larger than halos observed using FA-Glu”.
